These results are taken from article PMC7539012, “Hyperphosphorylated tau aggregation and cytotoxicity modulators screen identified prescription drugs linked to Alzheimer's disease and cognitive functions” (Scientific Reports, 2020).

Structures can show the parent of a compound that is named as a salt. Where a SMILES comes first, the peptide text is derived from it. Bridges are numbered along the chain shown (N, C = ends). [ ]: non-standard residue; d: D form. The star is where a group is joined. X2 = CCC(C)C(N)C1=NC(C(=O)*)CS1; dOrn = NCCC[C@@H](N)C(=O)O

For the first test, the system named is T1, 1N4R p-tau.
T1 construct: made in house; host or cells: E. coli (PIMAX system)
Briefly: p-tau aggregation modulator screen of 1280-compound library (ThS fluorescence net change over 16 h).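 For ThS net change: 30 µM compound with 6 µM p-tau over 16 h.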 The format is biochemical. Further details: key to PTAI>3SD: *: PTAI>3SD.
Conditions: not given
In turn, `CN1[C@@H]2CC[C@H]1C[C@@H](OC(=O)C(CO)c1ccccc1)C2` (stereo partly drawn) [Atropine sulfate monohydrate] displayed a ThS net change of 397.

For `CCC1(C)CC(=O)NC(=O)C1` [Bemegride], the ThS net change stood at 431. For the molecule `O=C(Oc1cccc2cccnc12)c1ccccc1` [Benzoxiquine], the ThS net change is listed as 287.

Still in this test, the particulars now being: 1280-compound library screen; ThS fluorescence net change over 16 h.
Turning to `Nc1ncn(C2O[C@H](CO)[C@@H](O)[C@H]2O)c(=O)n1` (stereo partly drawn) [Azacytidine-5], the ThS net change amounted to 405.

Turning to `CC1(C)S[C@@H]2[C@H](NC(=O)[C@H](NC(=O)N3CCNC3=O)c3ccccc3)C(=O)N2[C@H]1C(=O)O` [Azlocillin sodium salt], the ThS net change came out at 396. On the same count and under the same terms, the result for `C[C@H]1[C@H](NC(=O)/C(=N\OC(C)(C)C(=O)O)c2csc(N)n2)C(=O)N1S(=O)(=O)O` [Aztreonam] reads 386; that for `O=C([O-])CCNC(=O)c1ccc(/N=N/c2ccc(O)c(C(=O)[O-])c2)cc1.[Na+].[Na+]` [Balsalazide Sodium], 399; that for `CCOC(=O)[C@H](CCc1ccccc1)N[C@H]1CCc2ccccc2N(CC(=O)O)C1=O` [Benazepril HCl], 382.

Turning to `CCOC(=O)c1ccc(N)cc1` [Benzocaine], the ThS net change is listed as 379. On the same count and under the same terms, the result for `CCCCNc1ccc(C(=O)OCCOCCOCCOCCOCCOCCOCCOCCOCCOC)cc1` [Benzonatate] reads 398; that for `NS(=O)(=O)c1cc2c(cc1Cl)N=C(CSCc1ccccc1)NS2(=O)=O` [Benzthiazide], 399; that for `CC1(C)S[C@@H]2[C@H](NC(=O)Cc3ccccc3)C(=O)N2[C@H]1C(=O)O` [Benzylpenicillin sodium], 398. Same read-out and setting: under `CNCCc1ccccn1.CS(=O)(=O)O.CS(=O)(=O)O` [Betahistine mesylate] stands 378; under `C[C@H]1C[C@H]2[C@@H]3CCC4=CC(=O)C=C[C@]4(C)[C@@]3(F)[C@@H](O)C[C@]2(C)[C@@]1(O)C(=O)CO` [Betamethasone], 395. Consider `CC(C)(Oc1ccc(CCNC(=O)c2ccc(Cl)cc2)cc1)C(=O)O` [Bezafibrate], for which the ThS net change was found to be 389.

`CC(O)(CS(=O)(=O)c1ccc(F)cc1)C(=O)Nc1ccc(C#N)c(C(F)(F)F)c1` (stereo not drawn) [Bicalutamide] yielded a ThS net change of 388. In turn, `OC(CCN1CCCCC1)(c1ccccc1)C1CC2C=CC1C2` (stereo not drawn) [Biperiden hydrochloride] yielded a ThS net change of 380. The same measure, in the same setting: the result for `CC(=O)Oc1ccc(C(c2ccc(OC(C)=O)cc2)c2ccccn2)cc1` [Bisacodyl] reads 398; that for `CC(C)NCC(O)COc1ccc(COCCOC(C)C)cc1` (stereo not drawn) [Bisoprolol fumarate], 409.

The same test, now with this note: 1280-compound library screen; […].
For `OC(c1ccccc1)(c1ccccc1)C1CCNCC1` [Azacyclonol], the ThS net change stood at 400. Molecule `NC(=NCc1ccccc1)NC(=O)c1nc(Cl)c(N)nc1N` [Benzamil hydrochloride] had a ThS net change of 379. The same measure, in the same setting: under `O=C(O)CCCC[C@@H]1SC[C@@H]2NC(=O)N[C@@H]21` [Biotin] stands 380.

Staying with this test, now noted: flag: p-tau aggregation inhibitor, ThS net change more than 3 SD from mean.
Take `CN1CCCC(n2nc(Cc3ccc(Cl)cc3)c3ccccc3c2=O)CC1` (stereo not drawn) [Azelastine HCl]: the “PTAI>3SD” value is on record as “*”.

Staying with this test, now noted: library screen, ThS fluorescence net change over 16 h with p-tau.
Take `COc1ccc(CCN2CCC(Nc3nc4ccccc4n3Cc3ccc(F)cc3)CC2)cc1` [Astemizole]: the ThS net change is on record as 265. On the same count and under the same terms, under `O=C1C(O)=C([C@H]2CC[C@H](c3ccc(Cl)cc3)CC2)C(=O)c2ccccc21` [Atovaquone] stands 266; under `COc1ccc(C(=O)CC(=O)c2ccc(C(C)(C)C)cc2)cc1` [Avobenzone], 250; under `CN1CCCC(n2nc(Cc3ccc(Cl)cc3)c3ccccc3c2=O)CC1` (stereo not drawn) [Azelastine HCl], 0. Take `CCCCOc1cc(C(=O)OCCN(CC)CC)ccc1N` [Benoxinate hydrochloride]: the ThS net change amounted to 312. `CN(C)CCCOc1nn(Cc2ccccc2)c2ccccc12` [Benzydamine hydrochloride] displayed a ThS net change of 310.

The same test, now with this note: p-tau aggregation modulator screen of 1280-compound library; ThS fluorescence net change.
The molecule `O=C1O[C@H]([C@@H](O)CO)C(O)=C1O` [Ascorbic acid] yielded a ThS net change of 361.

`COc1ccc(CC2c3cc(OC)c(OC)cc3CC[N+]2(C)CCC(=O)OCCCCCOC(=O)CC[N+]2(C)CCc3cc(OC)c(OC)cc3C2Cc2ccc(OC)c(OC)c2)cc1OC` (stereo not drawn) [Atracurium besylate] yielded a ThS net change of 370. The same measure, in the same setting: the result for `CC[P](CC)(CC)=[Au][S][C@@H]1O[C@H](COC(C)=O)[C@@H](OC(C)=O)[C@H](OC(C)=O)[C@H]1OC(C)=O` [Auranofin] reads 365.

In turn, `Nc1nc2[nH]nnc2c(=O)[nH]1` [Azaguanine-8] returned a ThS net change of 377.

Regarding `Cn1cnc([N+](=O)[O-])c1Sc1ncnc2nc[nH]c12` [Azathioprine], the ThS net change is on record as 367.

Turning to `CCOC(=O)OC(C)OC(=O)[C@@H]1N2C(=O)[C@@H](NC(=O)[C@H](N)c3ccccc3)[C@H]2SC1(C)C` (stereo partly drawn) [Bacampicillin hydrochloride], the ThS net change was determined as 371. Still for that read-out and setting: under `CN(C)C(=O)Oc1cc(OC(=O)N(C)C)cc(C(O)CNC(C)(C)C)c1.Cl` (stereo not drawn) [Bambuterol hydrochloride] stands 336; under `CCC(=O)OCC(=O)[C@@]1(OC(=O)CC)[C@@H](C)C[C@H]2[C@@H]3CCC4=CC(=O)C=C[C@]4(C)[C@@]3(Cl)[C@@H](O)C[C@@]21C` [Beclomethasone dipropionate], 354. Molecule `NS(=O)(=O)c1cc2c(cc1C(F)(F)F)NC(Cc1ccccc1)NS2(=O)=O` (stereo not drawn) [Bendroflumethiazide] came in with a ThS net change of 357. The same measure, in the same setting: the result for `CC(Cc1cccc(C(F)(F)F)c1)NCCOC(=O)c1ccccc1` (stereo not drawn) [Benfluorex] reads 375. On the same count and under the same terms, under `C/C(=C(\CCOP(=O)(O)O)SC(=O)c1ccccc1)N(C=O)Cc1cnc(C)nc1N` [Benfotiamine] stands 375. Molecule `NC(CO)C(=O)NNCc1ccc(O)c(O)c1O` (stereo not drawn) [Benserazide hydrochloride] showed a ThS net change of 372. Same read-out and setting: under `C[N+](C)(CCOc1ccccc1)Cc1ccccc1.O=C([O-])c1cc2ccccc2cc1O` [Bephenium hydroxynaphthoate] stands 370; under `Cl.N[C@@H]1CCCCN(c2c(F)cc3c(=O)c(C(=O)O)cn(C4CC4)c3c2Cl)C1` [Besifloxacin hydrochloride], 360.

As for `CC(C)NCC(O)COc1ccc(CCOCC2CC2)cc1` (stereo not drawn) [Betaxolol hydrochloride], the ThS net change was determined as 373. As for `NCCc1cc[nH]n1` [Betazole hydrochloride], the ThS net change amounted to 333.

Still in this test, the particulars now being: p-tau aggregation modulator screen of 1280-compound library; […].
On to `CN1CC2c3ccccc3Oc3ccc(Cl)cc3C2C1` (stereo not drawn) [Asenapine maleate], for which the ThS net change is 375.

The molecule `CC(C)(C)CC(C)(C)c1ccc(OCCOCC[N+](C)(C)Cc2ccccc2)cc1` [Benzethonium chloride] registered a ThS net change of 365.

The same test, now with this note: p-tau aggregation modulator screen of the compound library, ThS fluorescence net change.
In the case of `CCCNC(C)C(=O)Nc1c(C)csc1C(=O)OC` (stereo not drawn) [Articaine hydrochloride], the ThS net change was 450.

Molecule `CC(C)c1c(C(=O)Nc2ccccc2)c(-c2ccccc2)c(-c2ccc(F)cc2)n1CC[C@@H](O)C[C@@H](O)CC(=O)O` [Atorvastatin] yielded a ThS net change of 488. The same measure, in the same setting: under `CC[C@H](C)[C@H]1O[C@]2(C=C[C@@H]1C)C[C@@H]1C[C@@H](C/C=C(\C)[C@@H](O[C@H]3C[C@H](OC)[C@@H](O[C@H]4C[C@H](OC)[C@@H](O)[C@H](C)O4)[C@H](C)O3)[C@@H](C)/C=C/C=C3\CO[C@@H]4[C@H](O)C(C)=C[C@@H](C(=O)O1)[C@]34O)O2` [Avermectin B1a] stands 676.

Take `O=C(CCCN1CCN(c2ccccn2)CC1)c1ccc(F)cc1` [Azaperone]: the ThS net change turned out to be 419. Same read-out and setting: under `CCCC1C(=O)N2C(N(C)C)=Nc3ccc(C)cc3N2C1=O` (stereo not drawn) [Azapropazone] stands 429; under `CN1CCC(=C2c3ccccc3CCc3cccnc32)CC1` [Azatadine maleate], 417; under `CC[C@H]1OC(=O)[C@H](C)[C@@H](O[C@H]2C[C@@](C)(OC)[C@@H](O)[C@H](C)O2)[C@H](C)[C@@H](O[C@@H]2O[C@H](C)C[C@H](N(C)C)[C@H]2O)[C@](C)(O)C[C@@H](C)CN(C)[C@H](C)[C@@H](O)[C@]1(C)O` [Azithromycin], 467. Same read-out and setting: under `CCC(C)C(N)C1=NC(C(=O)N[C@@H](CC(C)C)C(=O)N[C@H](CCC(=O)O)C(=O)N[C@H](C(=O)N[C@H]2CCCCNC(=O)[C@H](CC(N)=O)NC(=O)[C@@H](CC(=O)O)NC(=O)[C@H](Cc3cnc[nH]3)NC(=O)[C@@H](Cc3ccccc3)NC(=O)[C@H]([C@@H](C)CC)NC(=O)[C@@H](CCCN)NC2=O)[C@@H](C)CC)CS1` (stereo partly drawn) [Bacitracin] (X2-L[dE]IK[dOrn]I[dF]H[dD]N; lactam 4-C) stands 479; under `O=C(CCCN1CCC(n2c(O)nc3ccccc32)CC1)c1ccc(F)cc1` [Benperidol], 416. In turn, `CC1(C)S[C@@H]2[C@H](NC(=O)Cc3ccccc3)C(=O)N2[C@H]1C(=O)O.CC1(C)S[C@@H]2[C@H](NC(=O)Cc3ccccc3)C(=O)N2[C@H]1C(=O)O.c1ccc(CNCCNCc2ccccc2)cc1` [Benzathine benzylpenicillin] registered a ThS net change of 455. Still for that read-out and setting: under `CCc1oc2ccccc2c1C(=O)c1cc(Br)c(O)c(Br)c1` [Benzbromarone] stands 498; under `CN1[C@@H]2CC[C@H]1C[C@@H](OC(c1ccccc1)c1ccccc1)C2` [Benztropine mesylate], 419; under `CC(C)COCC(CN(Cc1ccccc1)c1ccccc1)N1CCCC1` (stereo not drawn) [Bepridil hydrochloride], 418. Still for that read-out and setting: under `CC(C[N+](C)(C)C)OC(N)=O` (stereo not drawn) [Bethanechol chloride] stands 418. Still for that read-out and setting: under `c1ccc(-c2ccc(C(c3ccccc3)n3ccnc3)cc2)cc1` (stereo not drawn) [Bifonazole] stands 432.

Regarding `COc1ccccc1Oc1c(NS(=O)(=O)c2ccc(C(C)(C)C)cc2)nc(-c2ncccn2)nc1OCCO` [Bosentan], the ThS net change was 453.
